Experimental data published in US8834579B2, “Dye composition for hair dyeing and method for producing the same” (Hodogaya Chemical Co., Ltd., priority 2012, dated 2014).
Read-outs that look alike come from different tables or passages of the source.

What was measured:
[1] = system: Salmonella typhimurium TA98 strain; conditions: TA98 (TA1537 strain and/or TA98 strain); SCCP Opinion on Basic Brown 16, 2008; cited from earlier work
[2] = system: Salmonella typhimurium TA1537 strain; conditions: TA1537 (TA1537 strain and/or TA98 strain); SCCP Opinion on Basic Brown 16, 2008; cited from earlier work
[3] = strain not stated; SCCP Opinion on Basic Brown 16, 2008; cited from earlier work
[4] = system: Salmonella typhimurium TA1537 strain; experiment: Ames test (reverse mutation test), TA1537 strain; format: cell-based
Source text: (§1) The Ames test is a test system for detecting a phenomenon that a histidine-requiring strain, which cannot grow without a specific amino acid (for example, histidine), is returned to a histidine-nonrequiring strain by a gene mutation due to a mutational substance. The Ames test is also called a reverse mutation test because a strain regains its original nature by a gene mutation. In the case of a metabolic activation test, a test substance, a test strain, and an enzyme for activating metabolism of drugs (S-9Mix) are mixed, and the mixture is cultured for 48 hours at 37° C. using an agar medium after preincubation for 20 minutes at 37° C. The number of induced revertant colonies is counted, and it is determined to be positive in the case where the ratio (MR value) of the number of the induced revertant colonies to the number of revertant colonies appearing in a negative control is 2 or more (refer to, for example, “Bacterial Reverse Mutation Test.” OECD GUIDELINE FOR TESTING OF CHEMICALS, no. 471, Adopted: 21, Jul. 1997).
(§2) The metabolic activation test is a test carried out by adding an enzyme for activating metabolism of drugs (that is, S-9Mix) which is obtained from a liver of a rat or the like in order to bring a metabolic system of drugs for microbes close to that of mammals.
(§3) With respect to Basic Brown 16 before and after purification, the Ames test was carried out using Salmonella typhimurium TA98 strain and Salmonella typhimurium TA1537 strain with and without an enzyme for activating metabolism of drugs (S-9Mix) in each strain.
(§4) The Ames test was carried out on the same condition also with respect to the component indicating positive in the Ames test and represented by the structural formula (III) among impurities contained in Basic Brown 16.

[5] = system: Salmonella typhimurium TA98 strain; experiment: Ames test (reverse mutation test), TA98 strain; format: cell-based
Source text: as §1, §2, §3, §4

In the case of `C[N+](C)(C)c1ccc2ccc(O)c(N=Nc3ccc(N)cc3)c2c1.[Cl-]` [Basic Brown 16], the Ames test result [1] is listed as “positive”, the Ames test result [2] is listed as “positive” and the Ames test result [3] is listed as “positive”.
With `CN(C)c1ccc2ccc(O)c(N=Nc3ccc(N)cc3)c2c1` [Component of structural formula (III)] the Ames test result ([4]; TA1537) was “positive (it is determined to be positive in the case where the ratio (MR value) of the number of the induced revertant colonies to the number of revertant colonies appearing in a negative control is 2 or more)”, the “MR value (ratio of induced revertant colonies to negative control)” value ([4]; TA1537, +S9 (with S-9Mix)) was 10.5 and the “MR value (ratio of induced revertant colonies to negative control)” value ([4]; TA1537, −S9 (without S-9Mix)) was 1.2. The Ames test result ([5]; TA98) was “positive (it is determined to be positive in the case where the ratio (MR value) of the number of the induced revertant colonies to the number of revertant colonies appearing in a negative control is 2 or more)”, the “MR value (ratio of induced revertant colonies to negative control)” value ([5]; TA98, +S9 (with S-9Mix)) was 53.0 and the “MR value (ratio of induced revertant colonies to negative control)” value ([5]; TA98, −S9 (without S-9Mix)) was 0.9.
